In patent US8946234B2, “Halogen-substituted compounds” (Bayer CropScience AG, priority 2008, dated 2015):

How the values were obtained:
[1] = logP by HPLC on a C18 phase inversion column, EEC Directive 79/831 Annex V.A8, method a) (Agilent 1100, 10-95% acetonitrile in 4.25 min); type: physicochemical; details: read-out: logP
In short: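 Following EEC Directive 79/831 Annex V.A8, logP is obtained from retention on a 1.8 micron C18 column (50×4.6 mm) at 55 °C and 2.0 ml/min. Elution ran 10→95% acetonitrile (0.1% formic acid) against water (0.09% formic acid) in 4.25 min, held 1.25 min; mass detection used.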

[2] = tested on: Phaedon cochleariae; assay: Phaedon test (PHAECO spray treatment); type: in vivo; details: foliar, application rate 500 g/ha, sprayed Chinese cabbage leaf discs, mustard beetle larvae, 100% = all larvae killed, read-out: effect in %
Description: [table] To produce a suitable active ingredient preparation, part by weight of active ingredient is mixed with the stated amounts of solvents and emulsifier, and the concentrate is diluted to the desired concentration with emulsifier-containing water. Discs of Chinese cabbage leaves (Brassica pekinensis) are sprayed with an active ingredient preparation of the desired concentration and, after drying, populated with larvae of the mustard beetle (Phaedon cochleariae). After the desired time, the effect in % is determined. Here, 100% means that all of the beetle larvae have been killed; 0% means that no beetle larvae have been killed.

[3] = logP by HPLC on a C18 phase inversion column, EEC Directive 79/831 Annex V.A8, method b) (HP1100, 5-95% acetonitrile in 1.70 min); type: physicochemical; details: HPLC phase inversion (reversed-phase) C18 column; HPLC method b), eluent acetonitrile/water with formic acid
Description: ^b) Note regarding the determination of the log P values and mass detection: The log P values given were determined in accordance with EEC Directive 79/831 Annex V.A8 by HPLC (High Performance Liquid Chromatography) on a phase inversion column (C18). HP1100; 50*4.6 Zorbax Eclipse Plus C18 1.8 micron; eluent A: acetonitrile (0.1% formic acid); eluent B: water (0.08% formic acid); linear gradient from 5% acetonitrile to 95% acetonitrile in 1.70 min, then 95% acetonitrile for a further 1.00 min; oven temperature 55° C.; flow: 2.0 ml/min. The mass detection is carried out via the mass detector Micromass ZQ2000 from Waters.

[4] = HPLC phase inversion (reversed-phase) C18 column, HPLC method a), eluent acetonitrile/water with formic acid
[5] = HPLC phase inversion (reversed-phase) C18 column, HPLC, method a)

| SMILES | chromatographic logP [1, 4] | pest or weed control at 500 g/ha [2] | chromatographic logP [1, 5] | chromatographic logP [3] |
| --- | --- | --- | --- | --- |
| O=C(NC1CC1)c1cc(NC(=O)c2cnc(OCC(F)(F)F)nc2C(F)(F)F)ccc1Cl [Ib-2] | 2.76 | ≥ 80% |  |  |
| O=C(NC1CC1)c1cc(NC(=O)c2cnc(OCC(F)(F)F)cc2C(F)(F)F)ccc1Cl [Ij-1, N-[4-Chloro-3-(cyclopropylcarbamoyl)phenyl]-6-(2,2,2-trifluoroethoxy)-4-(trifluoromethyl)pyridine-3-carboxamide] | 3.02 | ≥ 80% |  |  |
| Cn1nc(C(F)(F)C(F)(F)F)c(I)c1C(=O)Nc1ccc(Cl)c(C(=O)NC2CC2)c1 [Ik-4, N-[4-Chloro-3-(cyclopropylcarbamoyl)phenyl]-1-methyl-3-(pentafluoroethyl)-4-iodo-1H-pyrazole-5-carboxamide] | 3.16 | ≥ 80% | 3.15 |  |
| C#CCNC(=O)c1cc(NC(=O)c2c(C(F)(F)F)c(C(F)(F)C(F)(F)F)nn2C)ccc1Cl [Ik-3, N-[4-Chloro-3-(prop-2-yn-1-ylcarbamoyl)phenyl]-1-methyl-3-(pentafluoroethyl)-4-(trifluoromethyl)-1H-pyrazole-5-carboxamide] |  | ≥ 80% |  | 3.11 |
| Cn1nc(C(F)(F)C(F)(F)F)c(C(F)(F)F)c1C(=O)Nc1ccc(Cl)c(C(=O)NC2CC2)c1 [Ik-1, N-[4-Chloro-3-(cyclopropylcarbamoyl)phenyl]-1-methyl-3-(pentafluoroethyl)-4-(trifluoromethyl)-1H-pyrazole-5-carboxamide] | 3.34 | ≥ 80% | 3.34 |  |
| O=C(NC1CC1)c1cc(NC(=O)c2cnc(C(F)(F)C(F)(F)F)nc2C(F)F)ccc1Cl [Ib-27, N-[4-Chloro-3-(cyclopropylcarbamoyl)phenyl]-4-(difluoromethyl)-2-(pentafluoroethyl)pyrimidine-5-carboxamide] | 2.92 | ≥ 80% |  |  |
| O=C(NC1CC1)c1cc(NC(=O)c2cnc(Cl)nc2C(F)(F)F)ccc1Cl [Ib-1, 2-chloro-N-[4-chloro-3-(cyclopropylcarbamoyl)phenyl]-4-(trifluoromethyl)pyrimidine-5-carboxamide] | 2.36 | ≥ 80% |  |  |
| C=Cc1c(C(F)(F)C(F)(F)F)nn(C)c1C(=O)Nc1ccc(Cl)c(C(=O)NC2CC2)c1 [Ik-5, N-[4-Chloro-3-(cyclopropylcarbamoyl)phenyl]-1-methyl-3-(pentafluoroethyl)-4-ethenyl-1H-pyrazol-5-carboxamide] | 3.11 | ≥ 80% | 3.11 |  |
